Measured values reported in PubChem BioAssay AID248 (DTP/NCI, 2004).
Values joined by “and” are separate entries in the source; they are usually repeats but may differ in a detail not shown here. Equal entries are not always repeated. Inconclusive results and toxic doses are left out. No stated cut-off is given here; in the data, active means T/C of 150% or more; inactive means T/C below 125%.

Tested on: L1210 leukemia ip in BDF1 mice, survival T/C
Test: NCI In Vivo Anticancer Drug Screen. Data for tumor model L1210 Leukemia (intraperitoneal) in B6D2F1 (BDF1) mice
Settings: endpoint: mean survival time, higher = longer survival
Method in brief: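 Transplanted-tumor mice were given test agent; controls received vehicle only. Survival readings from the two groups were divided (treated over control).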

[1] = dose: 100.0 mg/kg/injection, schedule: Q04DX003 (ip), vehicle: Klucel (hydroxypropylcellulose) (HPC)
[2] = dose: 200.0 mg/kg/injection, schedule: Q04DX003 (ip), vehicle: Klucel (hydroxypropylcellulose) (HPC)
[3] = dose: 400.0 mg/kg/injection, schedule: Q04DX003 (ip), vehicle: Klucel (hydroxypropylcellulose) (HPC)
[4] = dose: 100.0 mg/kg/injection, schedule: Q01DX009 (ip), vehicle: saline with Tween-80
[5] = dose: 400.0 mg/kg/injection, schedule: Q01DX009 (ip), vehicle: saline with Tween-80
[6] = dose: 100.0 mg/kg/injection, schedule: Q01DX001 (ip), vehicle: saline with Tween-80
[7] = dose: 200.0 mg/kg/injection, schedule: Q01DX001 (ip), vehicle: saline with Tween-80
[8] = dose: 400.0 mg/kg/injection, schedule: Q01DX001 (ip), vehicle: saline with Tween-80
[9] = dose: 100.0 mg/kg/injection, schedule: Q01DX009 (ip), vehicle: saline
[10] = dose: 100.0 mg/kg/injection, schedule: Q04DX003 (ip), vehicle: saline
[11] = dose: 200.0 mg/kg/injection, schedule: Q01DX009 (ip), vehicle: saline
[12] = dose: 400.0 mg/kg/injection, schedule: Q01DX009 (ip), vehicle: saline
[13] = dose: 100.0 mg/kg/injection, schedule: Q04DX003 (ip), vehicle: saline with Tween-80
[14] = dose: 200.0 mg/kg/injection, schedule: Q04DX003 (ip), vehicle: saline with Tween-80
[15] = dose: 400.0 mg/kg/injection, schedule: Q04DX003 (ip), vehicle: saline with Tween-80

Measured: T/C

COc1cc2c(cc1OC)C1Cc3cc(OC)c(OC)cc3C(C2)N1
inactive: dose: 75.0 mg/kg/injection, schedule: Q01DX001 (ip), vehicle: saline 97 % of control | dose: 150.0 mg/kg/injection, schedule: Q01DX001 (ip), vehicle: saline 97 % of control | dose: 300.0 mg/kg/injection, schedule: Q01DX001 (ip), vehicle: saline 97 % of control

Cc1ccc(N=Cc2cc(Br)ccc2O)cc1Cl
inactive: dose: 100.0 mg/kg/injection, schedule: Q04DX002 (ip), vehicle: saline with Tween-80 107 % of control | dose: 200.0 mg/kg/injection, schedule: Q04DX002 (ip), vehicle: saline with Tween-80 107 % of control | dose: 400.0 mg/kg/injection, schedule: Q04DX002 (ip), vehicle: saline with Tween-80 96 % of control

COc1ccccc1NC(=O)Nc1ccc(F)cc1
inactive: dose: 100.0 mg/kg/injection, schedule: Q01DX009 (ip), vehicle: Klucel (hydroxypropylcellulose) (HPC) 95 % of control | [1] 95 % of control | dose: 200.0 mg/kg/injection, schedule: Q01DX009 (ip), vehicle: Klucel (hydroxypropylcellulose) (HPC) 92 % of control | [2] 92 % of control | dose: 400.0 mg/kg/injection, schedule: Q01DX009 (ip), vehicle: Klucel (hydroxypropylcellulose) (HPC) 108 % of control | [3] 94 % of control

NCCC(=O)NO
inactive: dose: 100.0 mg/kg/injection, schedule: Q01DX001 (ip), vehicle: saline 98 % of control | dose: 200.0 mg/kg/injection, schedule: Q01DX001 (ip), vehicle: saline 88 % of control | dose: 400.0 mg/kg/injection, schedule: Q01DX001 (ip), vehicle: saline 106 % of control

COC(=O)c1noc2cc([N+](=O)[O-])ccc12
inactive: [4] 96 % of control | dose: 200.0 mg/kg/injection, schedule: Q01DX009 (ip), vehicle: saline with Tween-80 92 % of control | [5] 90 % of control

CCCCC1C2CCCCC2CC2CCCCC21 (stereo unspecified)
inactive: [6] 98 % of control | [7] 101 % of control | [8] 98 % of control

O=C(O)CCCC1CCCCc2ccccc21 (stereo unspecified)
inactive: dose: 100.0 mg/kg/injection, schedule: Q04DX003 (ip), vehicle: acetone 103 % of control | dose: 200.0 mg/kg/injection, schedule: Q04DX003 (ip), vehicle: acetone 100 % of control | dose: 400.0 mg/kg/injection, schedule: Q04DX003 (ip), vehicle: acetone 110 % of control

CC(CS(=O)(=O)O)NC(CO)(CO)CO (stereo unspecified)
inactive: [9] 104 % of control | [10] 100 % of control | [11] 98 % of control | dose: 200.0 mg/kg/injection, schedule: Q04DX003 (ip), vehicle: saline 100 % of control | [12] 96 % of control | dose: 400.0 mg/kg/injection, schedule: Q04DX003 (ip), vehicle: saline 100 % of control

CC1c2c(ccc3c2CCC=C3)CCC1CC1=CCCc2ccc3ccccc3c21 (stereo unspecified)
inactive: [9] 107 % of control | [1] 103 % of control | [11] 95 % of control | [2] 90 % of control | [12] 93 % of control | [3] 95 % of control

COc1ccc(-n2c(=O)c(N=Nc3ccccc3C)c(O)n(-c3ccc(C)cc3)c2=S)cc1
inactive: dose: 100.0 mg/kg/injection, schedule: Q01DX001 (ip), vehicle: Klucel (hydroxypropylcellulose) (HPC) 95 % of control | dose: 200.0 mg/kg/injection, schedule: Q01DX001 (ip), vehicle: Klucel (hydroxypropylcellulose) (HPC) 97 % of control | dose: 400.0 mg/kg/injection, schedule: Q01DX001 (ip), vehicle: Klucel (hydroxypropylcellulose) (HPC) 97 % of control

CCOc1ccccc1NC(=O)Nc1cccc(C(F)(F)F)c1
inactive: dose: 100.0 mg/kg/injection, schedule: Q04DX002 (ip), vehicle: Klucel (hydroxypropylcellulose) (HPC) 99 % of control | dose: 200.0 mg/kg/injection, schedule: Q04DX002 (ip), vehicle: Klucel (hydroxypropylcellulose) (HPC) 92 % of control | dose: 400.0 mg/kg/injection, schedule: Q04DX002 (ip), vehicle: Klucel (hydroxypropylcellulose) (HPC) 89 % of control

C/C=C(/Cl)c1c(C)cc(C)cc1C
inactive: dose: 25.0 mg/kg/injection, schedule: Q01DX009 (ip), vehicle: saline with Tween-80 91 % of control | dose: 50.0 mg/kg/injection, schedule: Q01DX009 (ip), vehicle: saline with Tween-80 98 % of control | [4] 89 % of control and 91 % of control | [13] 101 % of control | [14] 98 % of control | [5] 98 % of control | [15] 101 % of control

O=C(NC/C=C/Br)C(F)(F)F
inactive: [6] 118 % of control | [13] 98 % of control | [7] 96 % of control | [14] 95 % of control | [8] 95 % of control | [15] 97 % of control

CC(NC(=O)OCc1ccccc1)C(=O)NC(CC(=O)O)C(=O)O (stereo unspecified)
inactive: dose: 25.0 mg/kg/injection, schedule: Q01DX009 (ip), vehicle: saline 96 % of control | dose: 25.0 mg/kg/injection, schedule: Q04DX003 (ip), vehicle: saline 93 % of control | dose: 50.0 mg/kg/injection, schedule: Q01DX009 (ip), vehicle: saline 98 % of control | dose: 50.0 mg/kg/injection, schedule: Q04DX003 (ip), vehicle: saline 98 % of control | [9] 93 % of control | [10] 97 % of control
